US4201866A, “O-Hemi-succinate of propranolol” (American Home Products Corporation, priority 1977, dated 1980)
Where “and” joins values, the source holds several entries; their conditions need not be identical. Equal entries are not always repeated. Structures can show the parent of a compound that is named as a salt. Where two headings read alike, the source gives them in different places.

Tests used:
Type in all cases: in vivo, beagle dogs
[1] = Intravenous administration of propranolol HCl and propranolol-o-hemi-succinate HCl; plasma levels of free propranolol (Example 3)
Method: (§1) Plasma was analyzed for free propranolol by a TLC fluorometric procedure. Two ml samples were mixed with 2 ml of pH 10 buffer and extracted with 25 ml of ethyl ether. A 20 ml aliquot from the ether phase was evaporated to dryness and the dry residue was dissolved in 100 μl of ethanol. Twenty-five μl aliquots were spotted on TLC plates of silica gel along with standard solutions of propranolol. The plates were developed in a saturated tank containing the solvent system methanol (100 ml): concentrated NH4 OH (0.4 ml). After development, the plates were dried and sprayed with a 50% solution of propylene glycol in water. They were then read in the fluorescence mode of a Schoeffel spectrodensitometer. The limit of reliable quantitation was 2 ng. of propranolol per ml of plasma.
In this experiment, the same four dogs used in Example 2 were administered a 20 mg intravenous dose of propranolol HCl on one experimental day and an equivalent dose of the o-hemi-succinate on a second day. A period of one week elapsed between each administration. Blood samples were collected and analyzed as above.

[2] = Oral propranolol-o-hemi-succinate hydrochloride; plasma levels of unchanged ester and free propranolol (Example 5)
Method: (§2) Four beagle dogs were administered propranolol-o-hemi-succinate hydrochloride either intravenously or orally. The dogs were divided into two groups of two, each group receiving each dosing regimen according to a crossover design. The oral doses consisted of 107 mg of propranolol-o-hemi-succinate hydrochloride (equivalent to 80 mg propranolol HCl) and the intravenous doses consisted of 26.7 mg of propranolol-o-hemi-succinate hydrochloride (equivalent to 20 mg propranolol HCl). Blood samples were collected at regular intervals after dosing and plasma was analyzed for free propranolol and unchanged propranolol-o-hemi-succinate hydrochloride.
(§3) Plasma was analyzed for propranolol-o-hemi-succinate hydrochloride by a TLC fluorometric procedure. Two ml samples were mixed with 2 ml of pH 4 buffer and extracted with 40 ml of methylene chloride. A 30 ml aliquot from the organic phase was evaporated to dryness and the residue was dissolved in 100 μl of ethanol. Twenty-five μl aliquots were spotted on TLC plates of silica gel along with standard solutions of propranolol-o-hemi-succinate hydrochloride. The plates were developed in saturated tank containing the solvent system: isopropyl alcohol (55 ml), benzene (40 ml), water (5 ml), formic acid (3 ml). After developement, the plates were dried and sprayed with a 50% solution of propylene glycol in water. They were read in the fluorescence mode of a Schoeffel spectrodensitometer. The limit of reliable quantitation was 25 ng per ml of plasma.

[3] = Intravenous propranolol-o-hemi-succinate hydrochloride; plasma levels of unchanged ester and free propranolol (Example 5)
Method: as §2, §3

[4] = Oral administration of a reduced dose of propranolol-o-hemi-succinate hydrochloride; plasma levels of free propranolol (Example 4)
Method: Two beagle dogs were given an oral dose of 13.4 mg of propranolol-O-hemi-succinate hydrochloride (equivalent to 10 mg. propranolol HCl). Blood samples were obtained at regular intervals after drug administration and plasma analyzed for free propranolol. Plasma levels of free propranolol were compared to those obtained following administration of 80 mg dose of propranolol HCl.

[5] = Oral administration of propranolol-o-hemi-succinate HCl and propranolol HCl; plasma levels of free propranolol (Example 2)
Method: In this experiment, four beagle dogs were given an 80 mg. oral dose of propranolol HCl or an equivalent dose of the o-hemi-succinate. The animals were divided into two groups of two, each group receiving the drugs according to a crossover design. The crossover experiment was repeated twice. A period of at least one week elapsed between each dosing day. Blood samples were obtained at regular intervals after dosing a plasma was analyzed for free propranolol concentrations.
as §1

[6] = 80 mg propranolol HCl or equivalent

Plasma levels of free propranolol compared with propranolol i.v. ([1]; equivalent dose): lower | Conversion of the propranolol ester to propranolol ([1]; i.v.): very fast | levels of propranolol found 5 minutes after administration ([1]; i.v., 5 minutes): high levels | Plasma level of unchanged propranolol-o-hemi-succinate HCl ([2]; 0 h, oral 107 mg, individual dogs, in ng/mL): 0 | Mean plasma level of unchanged propranolol-o-hemi-succinate HCl ([2]; 0 h, oral 107 mg, mean): 0 | Plasma level of unchanged propranolol-o-hemi-succinate HCl ([2]; 1 hr, oral 107 mg, individual dogs, Hydrochloride, 60 min): 2950 ng/mL and 1900 ng/mL and 3240 ng/mL and 1320 ng/mL | Plasma level of unchanged propranolol-o-hemi-succinate HCl ([2]; 2 hrs, oral 107 mg, individual dogs, Hydrochloride, 120 min): 715 ng/mL and 390 ng/mL and 486 ng/mL and 268 ng/mL | Plasma level of unchanged propranolol-o-hemi-succinate HCl ([2]; 6 hrs, oral 107 mg, individual dogs, * = estimate only, below level of reliable quantitation, Hydrochloride): 0 ng/mL | Plasma level of unchanged propranolol-o-hemi-succinate HCl ([2]; 6 hrs, oral 107 mg, individual dogs, * = estimate only, below level of reliable quantitation, Hydrochloride, 360 min): 20 ng/mL and 13 ng/mL and 8 ng/mL | concentration at 0.5 h ([2]; dog, plasma, po, 107 mg, 1/2 hr, mean, read-out: Mean plasma level of unchanged propranolol-o-hemi-succinate HCl): 1760 ng/mL | concentration at 1 h ([2]; dog, plasma, po, 107 mg, 1 hr, mean, read-out: Mean plasma level of unchanged propranolol-o-hemi-succinate HCl): 2350 ng/mL | concentration at 2 h ([2]; dog, plasma, po, 107 mg, 2 hrs, mean, read-out: Mean plasma level of unchanged propranolol-o-hemi-succinate HCl): 465 ng/mL | concentration at 4 h ([2]; dog, plasma, po, 107 mg, 4 hrs, mean, read-out: Mean plasma level of unchanged propranolol-o-hemi-succinate HCl): 62 ng/mL | concentration at 6 h ([2]; dog, plasma, po, 107 mg, 6 hrs, mean, * = estimate only, below level of reliable quantitation, read-out: Mean plasma level of unchanged propranolol-o-hemi-succinate HCl): ~10 ng/mL | AUC(0-t) at 6 h ([2]; dog, plasma, po, 107 mg, mean, read-out: Mean AUC 0-6 Hrs. of unchanged propranolol-o-hemi-succinate HCl): 3470 ng·h/mL | Plasma level of unchanged propranolol-o-hemi-succinate HCl ([3]; 0 h, i.v. 26.7 mg, individual dogs, in ng/mL): 0 | Plasma level of unchanged propranolol-o-hemi-succinate HCl ([3]; 1/2 hr, i.v. 26.7 mg, individual dogs, 30 min, Hydrochloride): 692 ng/mL and 1130 ng/mL and 811 ng/mL and 487 ng/mL | Plasma level of unchanged propranolol-o-hemi-succinate HCl ([3]; 5 min, i.v. 26.7 mg, individual dogs, Hydrochloride): 2770 ng/mL and 2540 ng/mL and 1430 ng/mL | Plasma level of unchanged propranolol-o-hemi-succinate HCl ([3]; 10 min, i.v. 26.7 mg, individual dogs, Hydrochloride): 1590 ng/mL and 2350 ng/mL and 1780 ng/mL and 946 ng/mL | Plasma level of unchanged propranolol-o-hemi-succinate HCl ([3]; 15 min, i.v. 26.7 mg, individual dogs, Hydrochloride): 1210 ng/mL and 1760 ng/mL and 1340 ng/mL and 819 ng/mL | Plasma level of unchanged propranolol-o-hemi-succinate HCl ([3]; 1 hr, i.v. 26.7 mg, individual dogs, Hydrochloride, 60 min): 366 ng/mL and 198 ng/mL | Plasma level of unchanged propranolol-o-hemi-succinate HCl ([3]; 2 hrs, i.v. 26.7 mg, individual dogs, Hydrochloride, 120 min): 91 ng/mL and 76 ng/mL and 132 ng/mL and 30 ng/mL | Plasma level of unchanged propranolol-o-hemi-succinate HCl ([3]; 4 hrs, i.v. 26.7 mg, individual dogs, * = estimate only, below level of reliable quantitation, Hydrochloride): Trace | Plasma level of unchanged propranolol-o-hemi-succinate HCl ([3]; 6 hrs, i.v. 26.7 mg, individual dogs): Trace | Mean plasma level of unchanged propranolol-o-hemi-succinate HCl ([3]; 6 hrs, i.v. 26.7 mg, mean): Trace | half-life of free propranolol ([3]; after i.v. succinate ester): two | half-life ([3]; dog, plasma, 26.7 mg, following intravenous dosing, read-out: t 1/2 of disappearance of propranolol-o-hemi-succinate hydrochloride): 30 min | concentration at 0.5 h ([3]; dog, plasma, iv, 26.7 mg, 1/2 hr, i.v. 26.7 mg, mean, read-out: Mean plasma level of unchanged propranolol-o-hemi-succinate HCl): 781 ng/mL | concentration at 5 min ([3]; dog, plasma, iv, 26.7 mg, 5 min, i.v. 26.7 mg, individual dogs, read-out: Plasma level of unchanged propranolol-o-hemi-succinate HCl): 2200 ng/mL | concentration at 5 min ([3]; dog, plasma, iv, 26.7 mg, 5 min, i.v. 26.7 mg, mean, read-out: Mean plasma level of unchanged propranolol-o-hemi-succinate HCl): 2240 ng/mL | concentration at 10 min ([3]; dog, plasma, iv, 26.7 mg, 10 min, i.v. 26.7 mg, mean, read-out: Mean plasma level of unchanged propranolol-o-hemi-succinate HCl): 1670 ng/mL | concentration at 0.25 h ([3]; dog, plasma, iv, 26.7 mg, 15 min, i.v. 26.7 mg, mean, read-out: Mean plasma level of unchanged propranolol-o-hemi-succinate HCl): 1280 ng/mL | concentration at 1 h ([3]; dog, plasma, iv, 26.7 mg, 1 hr, i.v. 26.7 mg, individual dogs, read-out: Plasma level of unchanged propranolol-o-hemi-succinate HCl): 287 ng/mL | concentration at 1 h ([3]; dog, plasma, iv, 26.7 mg, 1 hr, i.v. 26.7 mg, mean, read-out: Mean plasma level of unchanged propranolol-o-hemi-succinate HCl): 284 ng/mL | concentration at 2 h ([3]; dog, plasma, iv, 26.7 mg, 2 hrs, i.v. 26.7 mg, mean, read-out: Mean plasma level of unchanged propranolol-o-hemi-succinate HCl): 82 ng/mL | concentration at 4 h ([3]; dog, plasma, iv, 26.7 mg, 4 hrs, i.v. 26.7 mg, individual dogs, * = estimate only, below level of reliable quantitation, read-out: Plasma level of unchanged propranolol-o-hemi-succinate HCl): ~15 ng/mL | concentration at 4 h ([3]; dog, plasma, iv, 26.7 mg, 4 hrs, i.v. 26.7 mg, mean, * = estimate only, below level of reliable quantitation, read-out: Mean plasma level of unchanged propranolol-o-hemi-succinate HCl): ~4 ng/mL | AUC(0-t) at 6 h ([3]; dog, plasma, iv, 26.7 mg, i.v. 26.7 mg, mean, read-out: Mean AUC 0-6 hr of unchanged propranolol-o-hemi-succinate HCl): 1230 ng·h/mL | AUC 0-6 hr of unchanged propranolol-o-hemi-succinate HCl ([3]; i.v. 26.7 mg, individual dogs, Hydrochloride, 360 min): 1160 ng·h/mL and 1530 ng·h/mL and 1520 ng·h/mL and 711 ng·h/mL | Mean plasma level of unchanged propranolol-o-hemi-succinate HCl ([3]; i.v. 26.7 mg, mean): 0 | ester left 4 hours after administration ([3]; i.v., 4 hours): virtually none | plasma levels of free propranolol 6 hours after administration of the succinate ester ([3]; i.v., 6 hours): significant plasma levels still existed | Plasma level of free propranolol ([4]; 6 hours after dosing, 80 mg propranolol HCl or 13.4 mg hemi-succinate HCl, individual dogs, Hydrochloride): Trace | levels of free propranolol at a dose 1/8 that of propranolol HCl ([4]; dogs, vs propranolol HCl, only two dogs): comparable levels | Absorption of the succinate and its conversion to propranolol [5]: rapid | plasma levels of free propranolol relative to equivalent dose of propranolol hydrochloride [5]: eight times higher | C.V. of overall mean AUC 0-6 hr [5, 6]: 41% | s.d. of overall mean AUC 0-6 hr [5, 6]: 445 ng·h/mL | Plasma level of propranolol following oral administration, compared with propranolol hydrochloride ([5]; equivalent dose): considerably higher | reduction of fluctuation in plasma levels following the pro-drug, as revealed by AUC values ([5]; vs propranolol hydrochloride): 35%
SMILES: CC(C)NCC(COc1cccc2ccccc12)OC(=O)CCC(=O)O (stereo not drawn) [propranolol-o-hemi-succinate HCl, Butanedioic Acid Monol[[2-(1-Methylethyl] Amino] -1-[(1-Naphthalenyloxy) Methyl] Ethyl] Ester Hydrochloride]
AUC 0-6 Hrs. of unchanged propranolol-o-hemi-succinate HCl ([2]; oral 107 mg, individual dogs, Hydrochloride, 360 min): 3590 ng·h/mL and 3366 ng·h/mL and 4818 ng·h/mL and 2121 ng·h/mL
